# According to ChEMBL document CHEMBL1201862, “PubChem BioAssay data set” (2004):
#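 Step 1: Grow cells in 96-well plates. Step 2: Expose to compound for 48 hours at 5 concentrations. Step 3: Interpolate endpoints linearly; if unreached, use highest concentration. GI50 marks 50% less growth.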 Activity calls are given as the source filed them. No stated cut-off is given here; in the data, active = GI50 up to about 1.1 µM and inactive = higher.
# Tests used:
# Test in all cases: inhibition of tumour cell growth, NCI panel, 48 h
# NCI-H23 = system: NCI-H23
# UACC-62 = system: UACC-62
# SW-620 = system: SW-620
# OVCAR-5 = system: OVCAR-5
# MOLT-4 = system: MOLT-4
# HCT-116 = system: HCT-116
# SK-OV-3 = system: SK-OV-3
# SF-268 = system: SF-268
# OVCAR-8 = system: OVCAR-8
# SF-539 = system: SF-539
# KM12 = system: KM12
# EKVX = system: EKVX
# 786-0 = system: 786-0
# IGROV-1 = system: IGROV-1
# DMS-273 = system: DMS-273
# UACC-257 = system: UACC-257
# SF-295 = system: SF-295
# DLD-1 = system: DLD-1
# SR = system: SR
# HOP-92 = system: HOP-92
# HCC 2998 = system: HCC 2998
# SNB-19 = system: SNB-19
# HOP-62 = system: HOP-62
# HT-29 = system: HT-29
# TK-10 = system: TK-10
# CCRF-CEM = system: CCRF-CEM
# ACHN = system: ACHN
# SK-MEL-2 = system: SK-MEL-2
# M14 = system: M14
# M19-MEL = system: M19-MEL
# A498 = system: A498
# RPMI-8226 = system: RPMI-8226
# OVCAR-4 = system: OVCAR-4
# KM-20L2 = system: KM-20L2
# HL-60 = system: HL-60
# U-251 = system: U-251
# COLO 205 = system: COLO 205
# A549 = system: A549
# RXF 393 = system: RXF 393
# SN12C = system: SN12C
# UO-31 = system: UO-31
# DMS-114 = system: DMS-114
# NCI-H226 = system: NCI-H226
# SNB-78 = system: SNB-78
# SNB-75 = system: SNB-75
# CAKI-1 = system: CAKI-1
# NCI-H460 = system: NCI-H460
# OVCAR-3 = system: OVCAR-3
# NCI-H522 = system: NCI-H522
# LOX IMVI = system: LOX IMVI
# K562 = system: K562
# Malme-3M = system: Malme-3M
# LXFL 529 = system: LXFL 529
# HCT-15 = system: HCT-15
# SK-MEL-28 = system: SK-MEL-28
# XF498 = system: XF498
# SK-MEL-5 = system: SK-MEL-5
smiles,measurement,setting,value
O=C(Nc1ccc([N+](=O)[O-])cc1[N+](=O)[O-])C(=O)C(C(=O)c1ccc(Cl)c(Cl)c1)C1OC(=O)c2ccccc21 (stereo not drawn),GI50,NCI-H23,17.3 µM (inactive)
same,GI50,UACC-62,16.3 µM (inactive)
same,GI50,SW-620,20.6 µM (inactive)
same,GI50,OVCAR-5,25.8 µM (inactive)
same,GI50,MOLT-4,14.6 µM (inactive)
same,GI50,HCT-116,19.4 µM (inactive)
same,GI50,SK-OV-3,23.2 µM (inactive)
same,GI50,SF-268,25.3 µM (inactive)
same,GI50,OVCAR-8,15.2 µM (inactive)
same,GI50,SF-539,> 10 µM (inactive)
same,GI50,KM12,18.4 µM (inactive)
same,GI50,EKVX,22.1 µM (inactive)
same,GI50,786-0,18.5 µM (inactive)
same,GI50,IGROV-1,22.2 µM (inactive)
same,GI50,DMS-273,31 µM (inactive)
same,GI50,UACC-257,22.6 µM (inactive)
same,GI50,SF-295,17.8 µM (inactive)
same,GI50,DLD-1,19.1 µM (inactive)
same,GI50,SR,26.5 µM (inactive)
same,GI50,HOP-92,1.26 µM (inactive)
same,GI50,HCC 2998,> 10 µM (inactive)
same,GI50,SNB-19,18.6 µM (inactive)
same,GI50,HOP-62,16.7 µM (inactive)
same,GI50,HT-29,25.8 µM (inactive)
same,GI50,TK-10,32.1 µM (inactive)
same,GI50,CCRF-CEM,22.6 µM (inactive)
same,GI50,ACHN,23.3 µM (inactive)
same,GI50,SK-MEL-2,> 10 µM (inactive)
same,GI50,M14,> 10 µM (inactive)
same,GI50,M19-MEL,25.1 µM (inactive)
same,GI50,A498,21.4 µM (inactive)
same,GI50,RPMI-8226,25 µM (inactive)
same,GI50,OVCAR-4,42.9 µM (inactive)
same,GI50,KM-20L2,29.8 µM (inactive)
same,GI50,HL-60,28.9 µM (inactive)
same,GI50,U-251,30.3 µM (inactive)
same,GI50,COLO 205,21.6 µM (inactive)
same,GI50,A549,26.1 µM (inactive)
same,GI50,RXF 393,11.8 µM (inactive)
same,GI50,SN12C,24.1 µM (inactive)
same,GI50,UO-31,26.3 µM (inactive)
same,GI50,DMS-114,18.1 µM (inactive)
same,GI50,NCI-H226,12.4 µM (inactive)
same,GI50,SNB-78,21.9 µM (inactive)
same,GI50,SNB-75,> 100 µM (inactive)
same,GI50,CAKI-1,38 µM (inactive)
same,GI50,NCI-H460,> 10 µM (inactive)
same,GI50,OVCAR-3,27.7 µM (inactive)
same,GI50,NCI-H522,17.1 µM (inactive)
same,GI50,LOX IMVI,17.5 µM (inactive)
same,GI50,K562,28.4 µM (inactive)
same,GI50,Malme-3M,26.3 µM (inactive)
same,GI50,LXFL 529,17.1 µM (inactive)
same,GI50,HCT-15,27.2 µM
O=C1C2=C(N[C@@H](c3ccccc3)[C@H](c3ccccc3)N2)C(=O)c2ccccc21,GI50,NCI-H23,> 100 µM (inactive)
same,GI50,UACC-62,> 100 µM (inactive)
same,GI50,SW-620,> 100 µM (inactive)
same,GI50,OVCAR-5,> 100 µM (inactive)
same,GI50,MOLT-4,> 100 µM (inactive)
same,GI50,HCT-116,> 100 µM (inactive)
same,GI50,SK-OV-3,> 100 µM (inactive)
same,GI50,SF-268,> 100 µM (inactive)
same,GI50,OVCAR-8,> 100 µM (inactive)
same,GI50,SF-539,> 100 µM (inactive)
same,GI50,KM12,> 100 µM (inactive)
same,GI50,786-0,76.4 µM (inactive)
same,GI50,IGROV-1,> 100 µM (inactive)
same,GI50,DMS-273,> 100 µM (inactive)
same,GI50,UACC-257,> 100 µM (inactive)
same,GI50,SF-295,> 100 µM (inactive)
same,GI50,DLD-1,> 100 µM (inactive)
same,GI50,SR,> 100 µM (inactive)
same,GI50,HOP-92,8.05 µM (inactive)
same,GI50,SK-MEL-28,> 100 µM (inactive)
same,GI50,HCC 2998,> 100 µM (inactive)
same,GI50,SNB-19,> 100 µM (inactive)
same,GI50,HOP-62,> 100 µM (inactive)
same,GI50,HT-29,> 100 µM (inactive)
same,GI50,TK-10,> 100 µM (inactive)
same,GI50,CCRF-CEM,> 100 µM (inactive)
same,GI50,ACHN,> 100 µM (inactive)
same,GI50,SK-MEL-2,> 100 µM (inactive)
same,GI50,M14,> 100 µM (inactive)
same,GI50,M19-MEL,> 100 µM (inactive)
same,GI50,A498,> 100 µM (inactive)
same,GI50,RPMI-8226,> 100 µM (inactive)
same,GI50,OVCAR-4,> 100 µM (inactive)
same,GI50,HL-60,> 100 µM (inactive)
same,GI50,XF498,> 100 µM (inactive)
same,GI50,U-251,> 100 µM (inactive)
same,GI50,A549,> 100 µM (inactive)
same,GI50,RXF 393,> 100 µM (inactive)
same,GI50,SN12C,> 100 µM (inactive)
same,GI50,UO-31,> 100 µM (inactive)
same,GI50,DMS-114,> 100 µM (inactive)
same,GI50,NCI-H226,> 100 µM (inactive)
same,GI50,SNB-78,> 100 µM (inactive)
same,GI50,SNB-75,51.8 µM (inactive)
same,GI50,CAKI-1,> 100 µM (inactive)
same,GI50,NCI-H460,> 100 µM (inactive)
same,GI50,SK-MEL-5,> 100 µM (inactive)
same,GI50,OVCAR-3,> 100 µM (inactive)
same,GI50,NCI-H522,> 100 µM (inactive)
same,GI50,LOX IMVI,> 100 µM (inactive)
same,GI50,K562,> 100 µM (inactive)
same,GI50,Malme-3M,> 100 µM (inactive)
same,GI50,LXFL 529,> 100 µM (inactive)
same,GI50,HCT-15,> 100 µM
